Experimental data from article PMC7156458, “Synthetic biology based construction of biological activity-related library of fungal decalin-containing diterpenoid pyrones” (Nature Communications, 2020).
Values joined by “and” are separate entries in the source; they are usually repeats but may differ in a detail not shown here. Identical values can stand only once. Like-named read-outs stand apart in the source and are kept apart here.

Experiments:
MCF-7 cells = test: cell cytotoxic effects against MCF-7 cells (72 h), A490; assay type: cell-based, human; conditions: for viability at 0.1 µM / viability at 1 µM / viability at 10 µM: Homo sapiens, MCF7, 72 h, read-out: A490 (control =1) ave; for viability at 0.1 µM / viability at 1 µM / viability at 10 µM / A490 ave: MCF-7, 72 h
[1] = test system: human immunodeficiency virus-1 (HIV-1); test: anti-HIV MAGI assay; assay type: cell-based; conditions: Human immunodeficiency virus 1, MAGI, anti-HIV
Excerpt: We examined the inhibitory activities of DDPs against various species of bacteria (both gram-negative and gram-positive bacteria), fungi and viruses. […] In contrast, preliminary screening of the DDPs for anti-viral agents with hepatitis B virus (HBV), measles virus (MV), Epstein-Barr virus (EBV), herpes simplex virus (HSV) and human immunodeficiency virus-1 (HIV-1) indicated their selective inhibition of HIV.

MAGI cells = test: cytotoxicity in the anti-HIV assay (CC50); assay type: cell-based
DL1 cells = test: cytotoxicity in Drosophila DL1 cells; assay type: cell-based; conditions: DL1 cells; for IC50: cytotoxicity; for % viability, viability 2: replicate 2, relative to DMSO 1%; for % viability, viability 1: replicate 1, relative to DMSO 1%
Protocol: (§1) We screened the DDPs on the Drosophila assay system for cytotoxicity, inhibitory activity of innate immune signalling and insecticidal activity. The cytotoxicity of the DDPs was evaluated using two cell lines, embryonic macrophage-derived DL1 cells[58]–[60] and larval blood cell-derived l(2)mbn cells, and their IC50 values are listed in Supplementary Table 23.

[2] = cytotoxicity in Drosophila DL1 cells; assay type: cell-based; conditions: Drosophila, DL1 cells
Protocol: as §1

OVCAR-8 = test: cells; parameters: species or system JFCR39 human cancer cell lines; JFCR39 panel growth inhibition, sulforhodamine B total protein after 48 h; conditions: Homo sapiens, OVCAR-8, 48 h
Protocol: (§2) Supplementary Note 24. Antiproliferative effects across the panel of JFCR39 cancer cell lines A panel of 39 human cancer cell lines, termed JFCR39, were previously described13-16. Cells were grown in RPMI-1640 (FUJIFILM Wako Pure Chemical Corporation, Tokyo, Japan) supplemented with 1 µg mL-1 kanamycin and 5% (v/v) fetal bovine serum (Nichirei Biosciences Inc, Tokyo, Japan) and incubated at 37°C in a humidified atmosphere supplemented with 5% CO2. Drug efficacy was assessed as changes in total cellular protein after 48 hours of drug treatment using a sulforhodamine B assay. Assays were done in duplicate and the GI50 was calculated as described previously13,16. The antitumor profile across the JFCR39 panel, or fingerprints were then compared to reference database containing ~2000 compounds by COMPARE algorithm16,17. Initially, we evaluated new DDP analogues for their antiproliferative activities across the panel of 39 human cancer cell lines, JFCR39[50],[51].

LOX-IMVI = test: cells; parameters: species or system JFCR39 human cancer cell lines; JFCR39 panel growth inhibition, sulforhodamine B total protein after 48 h; conditions: Homo sapiens, LOX IMVI, 48 h
Protocol: as §2

MKN-B = test: cells; parameters: species or system JFCR39 human cancer cell lines; JFCR39 panel growth inhibition, sulforhodamine B total protein after 48 h; conditions: 48 h
Protocol: as §2

HBC-5 = test: cells; parameters: species or system JFCR39 human cancer cell lines; JFCR39 panel growth inhibition, sulforhodamine B total protein after 48 h; conditions: HBC5, 48 h
Protocol: as §2

MKN1 = test: cells; parameters: species or system JFCR39 human cancer cell lines; JFCR39 panel growth inhibition, sulforhodamine B total protein after 48 h; conditions: Homo sapiens, MKN-1, 48 h
Protocol: as §2

OVCAR-3 = test: cells; parameters: species or system JFCR39 human cancer cell lines; JFCR39 panel growth inhibition, sulforhodamine B total protein after 48 h; conditions: Homo sapiens, OVCAR-3, 48 h
Protocol: as §2

MDA-MB-231 = test: cells; parameters: species or system JFCR39 human cancer cell lines; JFCR39 panel growth inhibition, sulforhodamine B total protein after 48 h; conditions: Homo sapiens, MDA-MB-231, 48 h
Protocol: as §2

[3] = 0.1 µM (DMSO 0.002%), control 1.064
[4] = 1 µM (DMSO 0.02%), control 1.104
[5] = 10 µM (DMSO 0.2%), control 1.049
[6] = DL1 cells (embryonic macrophage-derived), replicate 1, relative to DMSO 1%, read-out: % viability, viability 1
[7] = DL1 cells (embryonic macrophage-derived), replicate 2, relative to DMSO 1%, read-out: % viability, viability 2
[8] = replicate 1, relative to DMSO 1%, read-out: % viability, viability 1
[9] = replicate 2, relative to DMSO 1%, read-out: % viability, viability 2

Compound: C=C1CCC2C(C)(CC(=O)C=C(C)C)C(O)CCC2(C)C1Cc1c(OC)oc(CO)c(C)c1=O (centres unmarked) [Compound 19]
- viability at 0.1 µM (MCF-7 cells; 0.1 µM (DMSO 0.002%)): 65%
- viability at 1 µM (MCF-7 cells; 1 µM (DMSO 0.02%)): 110%
- viability at 10 µM (MCF-7 cells; 10 µM (DMSO 0.2%)): 104%
- A490 ave (MCF-7 cells; [3]): 0.691
- A490 ave (MCF-7 cells; [4]): 1.209
- A490 ave (MCF-7 cells; [5]): 1.093
- EC50 ([1]; average of numeric determinations, read-out: Avg. EC50): 1.6 µM
- Cytotoxicity Avg. (MAGI cells; average of numeric determinations): 6.013 µM
- Cytotoxicity (MAGI cells; single determinations): 6.158 µM and 7.239 µM and 4.642 µM
- Luminescence Raw1 (DL1 cells; 0.04 µM, replicate 1): 1907594
- Luminescence Raw2 (DL1 cells; 0.04 µM, replicate 2): 1924545
- Luminescence Raw1 (DL1 cells; 0.2 µM, replicate 1): 1618356
- Luminescence Raw2 (DL1 cells; 0.2 µM, replicate 2): 1786055
- Luminescence Raw1 (DL1 cells; 1 µM, replicate 1): 1896774
- Luminescence Raw2 (DL1 cells; 1 µM, replicate 2): 1792907
- Luminescence Raw1 (DL1 cells; 4 µM, replicate 1): 1789301
- Luminescence Raw2 (DL1 cells; 4 µM, replicate 2): 1663075
- Luminescence Raw1 (DL1 cells; 10 µM, replicate 1): 1087156
- Luminescence Raw2 (DL1 cells; 10 µM, replicate 2): 1227796
- Luminescence Raw1 (DL1 cells; 20 µM, replicate 1): 315492
- Luminescence Raw2 (DL1 cells; 20 µM, replicate 2): 459001
- IC50 (DL1 cells; Drosophila melanogaster, average of two replicates, read-out: IC50 Average): 10.6 µM
- IC50 (DL1 cells; Drosophila melanogaster, average±SEM, read-out: IC50): 10.6 ± 0.23 µM
- IC50 (DL1 cells; Drosophila melanogaster, replicate 1, read-out: IC50 (1)): 10.3 µM
- IC50 (DL1 cells; Drosophila melanogaster, replicate 2, read-out: IC50 (2)): 10.8 µM
- viability at 0.04 µM [2, 6]: 92.6%
- viability at 0.04 µM [2, 7]: 93.4%
- viability at 0.2 µM [2, 6]: 78.6%
- viability at 0.2 µM [2, 7]: 86.7%
- viability at 1 µM [2, 6]: 92.1%
- viability at 1 µM [2, 7]: 87%
- viability at 4 µM [2, 6]: 86.9%
- viability at 4 µM [2, 7]: 80.7%
- viability at 10 µM [2, 6]: 52.8%
- viability at 10 µM [2, 7]: 59.6%
- viability at 20 µM [2, 6]: 15.3%
- viability at 20 µM [2, 7]: 22.3%
- GI50 (OVCAR-8): 40.8 µM
- GI50 (LOX-IMVI): 13.6 µM
- GI50 (MKN-B): 15.2 µM
- GI50 (HBC-5): 31.6 µM
- GI50 (MKN1): 78.2 µM
- GI50 (OVCAR-3): 18.4 µM

Compound: C=C1CCC2C(C)(CCC=C(C)C)C(O)CCC2(C)C1Cc1c(OC)oc(C)c(C)c1=O (centres unmarked) [Compound 11]
- cytotoxicity against the bulk of MCF-7 cells (MCF-7 cells): dose-dependent cytotoxicity
- viability at 0.1 µM (MCF-7 cells; 0.1 µM (DMSO 0.002%)): 92.2%
- viability at 1 µM (MCF-7 cells; 1 µM (DMSO 0.02%)): 34.3%
- viability at 10 µM (MCF-7 cells; 10 µM (DMSO 0.2%)): 21.4%
- A490 ave (MCF-7 cells; [3]): 0.981
- A490 ave (MCF-7 cells; [4]): 0.379
- A490 ave (MCF-7 cells; [5]): 0.224
- EC50 ([1]; MAGI assay, read-out: EC50): < 0.2 µM
- EC50 ([1]; single determinations, read-out: Efficacy (EC50)): > 10 µM
- Luminescence Raw1 (DL1 cells; 0.04 µM, replicate 1): 2962736
- Luminescence Raw2 (DL1 cells; 0.04 µM, replicate 2): 2763628
- Luminescence Raw1 (DL1 cells; 0.2 µM, replicate 1): 2626203
- Luminescence Raw2 (DL1 cells; 0.2 µM, replicate 2): 2499962
- % viability, viability 2 (DL1 cells; 0.2 µM): 182.283%
- Luminescence Raw1 (DL1 cells; 1 µM, replicate 1): 427059
- % viability, viability 1 (DL1 cells; 1 µM): 31.1387%
- Luminescence Raw2 (DL1 cells; 1 µM, replicate 2): 482949
- % viability, viability 2 (DL1 cells; 1 µM): 35.2139%
- Luminescence Raw1 (DL1 cells; 4 µM, replicate 1): 281027
- % viability, viability 1 (DL1 cells; 4 µM): 20.4909%
- Luminescence Raw2 (DL1 cells; 4 µM, replicate 2): 305186
- % viability, viability 2 (DL1 cells; 4 µM): 22.2524%
- Luminescence Raw1 (DL1 cells; 10 µM, replicate 1): 281749
- Luminescence Raw2 (DL1 cells; 10 µM, replicate 2): 304825
- Luminescence Raw1 (DL1 cells; 20 µM, replicate 1): 307710
- Luminescence Raw2 (DL1 cells; 20 µM, replicate 2): 306988
- IC50 (DL1 cells; average±SEM): 0.4 ± 0.02 µM
- IC50 (DL1 cells; read-out: IC50 (1), replicate 1): 0.38 µM
- IC50 (DL1 cells; read-out: IC50 (2), replicate 2): 0.415 µM
- IC50 (DL1 cells; read-out: IC50 Average, average of two replicates): 0.397 µM
- viability at 0.04 µM [2, 8]: 216%
- viability at 0.04 µM [2, 9]: 202%
- viability at 0.2 µM [2, 8]: 191%
- viability at 10 µM [2, 8]: 20.5%
- viability at 10 µM [2, 9]: 22.2%
- viability at 20 µM [2, 8]: 22.4%
- viability at 20 µM [2, 9]: 22.4%
- GI50 (OVCAR-8): 3.61 µM
- GI50 (MDA-MB-231): 22.6 µM
- GI50 (MKN-B): 3.7 µM
- GI50 (HBC-5): 13.9 µM
- GI50 (MKN1): 30.6 µM
- GI50 (OVCAR-3): 3.61 µM
